Results from ChEMBL document CHEMBL1201862, “PubChem BioAssay data set” (2004).
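Grown in 96-well plates, cells were treated for 48 hours with each compound at five concentrations. Insufficient inhibition: endpoint recorded as highest concentration tested. Abbreviation: GI50, concentration required for 50% inhibition of growth.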 The source made the active and inactive calls. Cut-off read from the data, not from the text of the source: active = GI50 up to about 1.1 µM and inactive = higher.

Legend:
Assay in all cases: NCI-60 cell line screen, 48 h
OVCAR-4 = system: OVCAR-4
KM12 = system: KM12
OVCAR-3 = system: OVCAR-3
TK-10 = system: TK-10
OVCAR-8 = system: OVCAR-8
HL-60 = system: HL-60
K562 = system: K562
SK-MEL-2 = system: SK-MEL-2
SF-268 = system: SF-268
SN12C = system: SN12C
LOX IMVI = system: LOX IMVI
MCF7 = system: MCF7
HCT-15 = system: HCT-15
NCI/ADR-RES = system: NCI/ADR-RES
A498 = system: A498
HT-29 = system: HT-29
IGROV-1 = system: IGROV-1
CAKI-1 = system: CAKI-1
SK-MEL-28 = system: SK-MEL-28
HCC 2998 = system: HCC 2998

Compound: Cc1cccc(CNc2[nH]cnc3nncc2-3)c1
- GI50 (OVCAR-4): 87.7 µM (inactive)
- GI50 (KM12): > 100 µM (inactive)
- GI50 (OVCAR-3): > 100 µM (inactive)
- GI50 (TK-10): > 100 µM (inactive)
- GI50 (OVCAR-8): 49.1 µM (inactive)
- GI50 (HL-60): > 100 µM (inactive)
- GI50 (K562): 47.1 µM (inactive)
- GI50 (SK-MEL-2): > 100 µM (inactive)
- GI50 (SF-268): > 100 µM (inactive)
- GI50 (SN12C): 72.8 µM (inactive)
- GI50 (LOX IMVI): > 100 µM (inactive)
- GI50 (MCF7): > 100 µM (inactive)
- GI50 (HCT-15): > 100 µM
- GI50 (NCI/ADR-RES): 90.2 µM (inactive)
- GI50 (A498): 40.6 µM (inactive)
- GI50 (HT-29): > 100 µM (inactive)
- GI50 (IGROV-1): 64.4 µM (inactive)
- GI50 (CAKI-1): 80.7 µM (inactive)
- GI50 (SK-MEL-28): > 100 µM (inactive)

Compound: Cn1c(=O)c2nc(COCc3nc4c(=O)n(C)c(=O)n(C)c4[nH]3)[nH]c2n(C)c1=O
- GI50 (OVCAR-4): > 100 µM (inactive)
- GI50 (KM12): > 100 µM (inactive)
- GI50 (OVCAR-3): > 100 µM (inactive)
- GI50 (TK-10): > 100 µM (inactive)
- GI50 (OVCAR-8): > 100 µM (inactive)
- GI50 (HL-60): > 100 µM (inactive)
- GI50 (K562): > 100 µM (inactive)
- GI50 (SK-MEL-2): > 100 µM (inactive)
- GI50 (SF-268): > 100 µM (inactive)
- GI50 (SN12C): > 100 µM (inactive)
- GI50 (LOX IMVI): > 100 µM (inactive)
- GI50 (MCF7): > 100 µM (inactive)
- GI50 (HCT-15): > 100 µM
- GI50 (NCI/ADR-RES): > 100 µM (inactive)
- GI50 (A498): > 100 µM (inactive)
- GI50 (HT-29): > 100 µM (inactive)
- GI50 (IGROV-1): > 100 µM (inactive)
- GI50 (CAKI-1): > 100 µM (inactive)
- GI50 (SK-MEL-28): > 100 µM (inactive)

Compound: CCOC(=O)C1(CO)CSCCSC1
- GI50 (KM12): > 100 µM (inactive)
- GI50 (TK-10): > 100 µM (inactive)
- GI50 (OVCAR-8): > 100 µM (inactive)
- GI50 (K562): > 100 µM (inactive)
- GI50 (SF-268): > 100 µM (inactive)
- GI50 (SN12C): > 100 µM (inactive)
- GI50 (LOX IMVI): > 100 µM (inactive)
- GI50 (MCF7): > 100 µM (inactive)
- GI50 (HCT-15): > 100 µM
- GI50 (NCI/ADR-RES): > 100 µM (inactive)
- GI50 (A498): > 100 µM (inactive)
- GI50 (HT-29): > 100 µM (inactive)
- GI50 (SK-MEL-28): > 100 µM (inactive)
- GI50 (HCC 2998): > 100 µM (inactive)

Compound: C/C(=C/C(=O)Nc1ccccc1)Nc1onc(C)c1C
- GI50 (OVCAR-4): > 100 µM (inactive)
- GI50 (KM12): > 100 µM (inactive)
- GI50 (OVCAR-3): > 100 µM (inactive)
- GI50 (OVCAR-8): > 100 µM (inactive)
- GI50 (HL-60): > 100 µM (inactive)
- GI50 (K562): > 100 µM (inactive)
- GI50 (SK-MEL-2): > 100 µM (inactive)
- GI50 (SF-268): > 100 µM (inactive)
- GI50 (SN12C): > 100 µM (inactive)
- GI50 (LOX IMVI): > 100 µM (inactive)
- GI50 (MCF7): > 100 µM (inactive)
- GI50 (HCT-15): > 100 µM
- GI50 (NCI/ADR-RES): > 100 µM (inactive)
- GI50 (A498): > 100 µM (inactive)
- GI50 (HT-29): > 100 µM (inactive)
- GI50 (IGROV-1): > 100 µM (inactive)
- GI50 (SK-MEL-28): > 100 µM (inactive)
- GI50 (HCC 2998): > 100 µM (inactive)

Compound: Cc1cnoc1/N=C1\C=C(O)C(=O)c2ccccc21
- GI50 (OVCAR-4): 20.4 µM (inactive)
- GI50 (KM12): 11.9 µM (inactive)
- GI50 (OVCAR-3): 5.26 µM (inactive)
- GI50 (TK-10): > 100 µM (inactive)
- GI50 (OVCAR-8): 25.8 µM (inactive)
- GI50 (HL-60): 10 µM (inactive)
- GI50 (K562): 1.73 µM (inactive)
- GI50 (SK-MEL-2): 2.82 µM (inactive)
- GI50 (SF-268): 17.8 µM (inactive)
- GI50 (SN12C): 1.77 µM (inactive)
- GI50 (LOX IMVI): 5.26 µM (inactive)
- GI50 (MCF7): 4.26 µM (inactive)
- GI50 (HCT-15): 12.2 µM
- GI50 (NCI/ADR-RES): 8.45 µM (inactive)
- GI50 (A498): 29 µM (inactive)
- GI50 (HT-29): 29 µM (inactive)
- GI50 (IGROV-1): 22.8 µM (inactive)
- GI50 (CAKI-1): 28.6 µM (inactive)
- GI50 (SK-MEL-28): 29.9 µM (inactive)

Compound: CCOc1ccc(NC(=O)/C(=N\NC(C)(C)C)C2C(=O)Nc3ccccc3[S+]2[O-])cc1 (configuration not stated)
- GI50 (OVCAR-4): > 100 µM (inactive)
- GI50 (KM12): > 100 µM (inactive)
- GI50 (OVCAR-3): > 100 µM (inactive)
- GI50 (TK-10): > 100 µM (inactive)
- GI50 (OVCAR-8): > 100 µM (inactive)
- GI50 (HL-60): > 100 µM (inactive)
- GI50 (K562): > 100 µM (inactive)
- GI50 (SK-MEL-2): > 100 µM (inactive)
- GI50 (SF-268): > 100 µM (inactive)
- GI50 (SN12C): > 100 µM (inactive)
- GI50 (MCF7): > 100 µM (inactive)
- GI50 (HCT-15): > 100 µM
- GI50 (NCI/ADR-RES): > 100 µM (inactive)
- GI50 (A498): > 100 µM (inactive)
- GI50 (HT-29): > 100 µM (inactive)
- GI50 (IGROV-1): > 100 µM (inactive)
- GI50 (SK-MEL-28): > 100 µM (inactive)
- GI50 (HCC 2998): > 100 µM (inactive)
